The test system of the assay is CEM cells HIV-1 protection, formazan growth assay. Kind of assay: NCI AIDS Antiviral Assay. Conditions: for IC50: measured here: growth of uninfected CEM cells. Put shortly: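 Protection of CEM cells against HIV-1 measured as cell growth via soluble formazan read-out, with five concentrations tested on both infected and uninfected cells; failure to protect may reflect toxicity.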

Structures are written as SMILES. Calls of active or inactive are those of the source.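 The calls were made as follows: active = compounds giving half or more protection of infected cells from virus-caused growth loss, again on retest; inactive = the rest.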 A value given as a limit tells only on which side of the number the result lay.

Usually EC50 stands for the concentration that produces a half-maximal response. Usually IC50 stands for the concentration needed to halve the response being measured. Lower therefore signals greater potency in that assay.

As to `O=C(CCC(=O)Nc1ccc(Cl)c(Cl)c1)Cc1nc2ccccc2o1`, the EC50 is above 182 µM and the IC50 is above 182 µM.

As to `CCO/C(Cc1ccc(Cl)cc1)=N/NC(N)=S`, the EC50 was above 200 µM and the IC50 was determined as 95.5 µM.

On to `O=[N+]([O-])c1ccc(SSc2ccc([N+](=O)[O-])cc2Cl)c(Cl)c1`, for which the EC50 is above 200 µM and the IC50 amounted to 10 µM. As for `CCC/C(Cl)=N/OC(=O)Nc1cccc(F)c1`, the EC50 is above 20 µM and the IC50 was 3.16 µM.

Take `CCO/C=C/C=C(C(=O)OCC)C(=O)OCC`: the EC50 was above 148 µM and the IC50 was above 148 µM. `O=c1[nH]nc(-c2ccccc2)n1/N=C/c1ccccc1Cl`: the EC50 is above 200 µM and the IC50 came to 74.1 µM. As for `CC1(C)O[C@H](C(=O)O)[C@@H](C(=O)O)O1`, the EC50 was above 200 µM and the IC50 is above 200 µM.

Turning to `COC1CCC(C(C)O)OO1` (stereo not drawn), the EC50 is above 200 µM and the IC50 is 33.9 µM. As for `COc1ccc(NC(=O)CSc2nnc(-c3ccc(N=Cc4ccc(Cl)cc4)cc3)o2)cc1`, the EC50 was above 141 µM and the IC50 stood at 31.6 µM. In the same order, the values of `CCOC(=O)C(NC(=O)OC(C)(C)C)C(=O)OCC` are above 200 µM and above 200 µM. In the same order, the values of `O=c1[nH]nc2ccc(n[nH]c1=O)c1ccccc21` are above 200 µM and 7.41 µM. The matching figures for `CCCCCCCCCCCC1=C(NCCS)C(=O)C=C(NCCS)C1=O`: above 1.26 µM and above 1.26 µM.

For the molecule `OCCN1CCN(CC/C=C2\c3ccccc3Sc3ccc(Cl)cc32)CC1`, the EC50 is above 200 µM and the IC50 worked out at 10.2 µM. The matching figures for `COc1cc2c(cc1O)N=C[C@@H]1CCC(O)N1C2=O` (mixture of isomers): above 324 µM and 0.575 µM. For `O=C1CN(c2ccc(Cl)cc2)C(=O)CN1CCN1CC(=O)N(c2ccc(Cl)cc2)CC1=O`, the EC50 was above 200 µM and the half-inhibitory concentration (IC50) was above 200 µM. Turning to `O=S(=O)(O)c1cc2c(c(S(=O)(=O)O)c1)[O][Sb]1([O]2)[O]c2cc(S(=O)(=O)O)cc(S(=O)(=O)O)c2[O]1`, the EC50 was above 324 µM and the IC50 is above 324 µM.

Take `CC(=O)C(=Cc1ccc(N(C)C)cc1)C(C)=O`: the EC50 is above 562 µM and the IC50 came to 112 µM. The matching figures for `Cc1cc(=O)oc2c3c4c(cc12)CCCN4CCC3`: above 14.8 µM and above 14.8 µM. The matching figures for `CN(C)C=C1C=CC=C1`: 166 µM and above 200 µM. As for `O=C1c2cc(Oc3ccccc3)c(S(=O)(=O)O)c(S(=O)(=O)O)c2C(=O)c2c(O)ccc(O)c21`, the EC50 was above 200 µM and the IC50 is 72.4 µM. The matching figures for `COC1/C=C/OC2(C)Oc3c(C)c(O)c4c(O)c(c(/C=N/N5CCOCC5)c(O)c4c3C2=O)NC(=O)C(C)=C/C=C/C(C)C(O)C(C)C(O)C(C)C(OC(C)=O)C1C` (stereo not drawn): above 200 µM and 35.5 µM. With `C[C@@H]1CN(C(=O)CCOS(C)(=O)=O)[C@@H](C)CN1C(=O)CCOS(C)(=O)=O`, the EC50 was above 200 µM and the IC50 was 67.6 µM. For the molecule `CN1C(OCc2ccccc2)c2c(ccc3c2OCO3)C2C=Cc3cc4c(cc3C21)OCO4` (stereo not drawn), the EC50 was above 11.7 µM and the IC50 turned out to be 0.676 µM.

For `Oc1c(CN2CCOCC2)ccc2cccnc12`, the EC50 was above 200 µM and the IC50 was found to be 3.72 µM. In the same order, the values of `O=P(O)(O)OP(=O)(O)O.[NH-]CC[NH-].[NH-]CC[NH-].[Pd+2].[Pd+2]` are above 200 µM and 102 µM.

Regarding `COC1CC(Br)(C#N)C1` (stereo not drawn), the result was inactive. On to `CN(c1ccccc1)S(=O)(=O)c1ccccc1[N+](=O)[O-]`, for which the EC50 was above 200 µM and the 50% inhibitory concentration (IC50) came to 64.6 µM. In the same order, the values of `Cc1cc(N(CCC#N)CCC#N)ccc1/C(Sc1ccccc1)=C(\NC(=O)/C=C/c1ccccc1)C(=O)Sc1ccccc1` are above 21.4 µM and 12.6 µM.

Consider `CC1CC[C@@]2(O)C(CCCC2(C)C)[C@]1(C)CCc1ccoc1` (stereo partly drawn), for which the result was inactive. As to `CC(C)(C)OC(=O)NCC(=O)NC1c2ccsc2/C(=N/O)[C@H]1O` (stereo partly drawn), the EC50 is above 200 µM and the IC50 is above 200 µM.

For the molecule `CCOC(=O)/C=C(\N=P(c1ccccc1)(c1ccccc1)c1ccccc1)C(F)(F)C(F)(F)C(F)(F)C(F)(F)C(F)(F)F`, the EC50 is above 200 µM and the IC50 is above 200 µM. Turning to `O=S1Cc2ccccc2CSS1` (stereo not drawn), the outcome was inactive.

For `COc1ccc(C(=O)C(c2ccc(OC)cc2)C2(O)C(=O)Nc3c2ccc(Cl)c3C)cc1` (stereo not drawn), the EC50 was above 11.5 µM and the IC50 is above 11.5 µM. With `CCOc1ccc(/C=C2\NC(=S)N(/C=C3\C(=O)Oc4ccccc4C3=O)C2=O)cc1`, the outcome was inactive. Still for that read-out and setting: under `Cc1ccc(S(=O)(=O)/C(C#N)=C/NC(=S)Nc2cc(Cl)ccc2Cl)cc1` stands “inactive”. For the molecule `Cc1oc2cc(O)ccc2c(=O)c1-c1ccccc1`, the EC50 is above 200 µM and the IC50 came out at 30.2 µM. In the same order, the values of `COC(=O)/C=C/c1ccc(OP(=O)(O)O)c(OC)c1` are above 200 µM and above 200 µM.

In the case of `CCOC(=O)C1=C(C)NC(=S)NC1c1ccccc1` (stereo not drawn), the EC50 was above 93.3 µM and the IC50 is above 93.3 µM. For the molecule `C[N+]1(C)CC2C3C=C(I)C(C3)C2C1` (stereo not drawn), the EC50 is above 214 µM and the IC50 is above 214 µM. For `CC(=O)c1c(O)n(-c2ccc(C)cc2)c(=O)c2c(N)n[nH]c12`, the half-maximal effective concentration (EC50) was 100 µM and the IC50 is 117 µM. The matching figures for `CC1=NS(=O)(=O)NC(C)=C1CC1=C(C)NS(=O)(=O)N=C1C`: above 269 µM and above 269 µM. `CCOC(=O)CCC(NC(=O)c1ccc(CNc2nc3ccccc3nc2C(=O)OCC)cc1)C(=O)OCC` (stereo not drawn): the EC50 was above 200 µM and the IC50 was above 200 µM. Regarding `Nc1ccc2c(SCc3ccc([N+](=O)[O-])cc3)c3ccccc3nc2c1`, the EC50 is above 20 µM and the IC50 came out at 3.02 µM. For `CCOP(=O)(CCC(O)CNc1nc(N)nc(Cl)c1N=Nc1ccc(Cl)cc1)OCC` (stereo not drawn), the EC50 is above 200 µM and the IC50 amounted to 6.46 µM. The matching figures for `C/C(=N\N=C(\N)OB(F)F)c1ccccn1`: above 200 µM and 141 µM. The matching figures for `Cc1csc2n(C)c(=O)c3ccccc3[n+]12`: 191 µM and above 200 µM.

Consider `CC1CC(C)S(=O)CS1` (stereo not drawn), for which the EC50 is above 759 µM and the IC50 was above 759 µM. Regarding `Cc1ccc(NC(=O)CC/C(CC(=O)C(C)(C)C)=N/NC(=O)C(N)=O)cc1C`, the EC50 is above 324 µM and the IC50 is above 324 µM. Take `CC(C)=CCc1c(-c2ccc(O)cc2O)oc2c3c(cc(O)c2c1=O)OC(C)(C)C=C3`: the EC50 is above 17.4 µM and the half-inhibitory concentration (IC50) stood at 13.8 µM. The matching figures for `CC(O)C1(CNc2cc(Cl)nc(N)n2)CCCC1` (stereo not drawn): above 200 µM and 74.1 µM. With `COC1OC(COCc2ccc(Cl)cc2)C(OCc2ccc(Cl)cc2)C1N=[N+]=[N-]` (stereo not drawn), the outcome was inactive.

`Oc1ccc(N=C2CCC(=C(c3ccccc3)c3ccc(Nc4ccc(O)cc4)cc3)CC2)cc1`: the EC50 is above 200 µM and the IC50 was found to be 20.9 µM. The matching figures for `Cc1ccccc1-n1c(C)nc(-c2ccccc2)cc1=O`: above 26.3 µM and above 26.3 µM.

In the case of `CC(C)OP(=O)(OC(C)C)C(C(C)C)N(C)C(N)=NC#N` (stereo not drawn), the EC50 was above 200 µM and the IC50 was above 200 µM.

`Oc1ccc(Cl)cc1Cc1ccccc1`: the EC50 is above 200 µM and the half-maximal inhibitory concentration (IC50) amounted to 39.8 µM. Turning to `CSP(=S)(SC)SC(C)c1ccc(C)cc1` (stereo not drawn), the outcome was inactive. On to `CCS1=C(C(C)=O)C(=O)O[C@H](C)C1` (stereo partly drawn), for which the EC50 is above 1230 µM and the IC50 is above 1230 µM. With `CC1(CCCCO)C=CC(S(=O)(=O)c2ccccc2)CC1` (stereo not drawn), the outcome was inactive. Regarding `C=C(/C=C/C=C(\CO)CCC=C(C)C)[C@H]1CCC2([C@H](CCCO)/C(=C(/C)C=O)CC[C@]2(C)O)[C@H]1O` (stereo partly drawn), the EC50 is above 263 µM and the IC50 turned out to be 195 µM. As for `O=C1C=CC(=O)[C@H]2C3C=CC(C4C3C3(Cl)C(Cl)=C(Cl)[C@]4(Cl)C3(Cl)Cl)[C@@H]12` (stereo partly drawn), the EC50 is above 200 µM and the half-maximal inhibitory concentration (IC50) amounted to 12 µM. For the molecule `CC1(C)C(=O)C(C)(C)C(=O)C(C)(C)C1=O`, the outcome was inactive. Take `CC1(C)CSC(=S)N1`: the EC50 was above 200 µM and the IC50 was above 200 µM. In the case of `CCCCC(=O)Oc1c(Cl)cc(C(=CCC[C@H]2CC[C@@]3(C)[C@@H](CC[C@@H]4[C@@H]3CC[C@]3(C)[C@@H](C(C)CCCC(C)C)CC[C@@H]43)C2)c2cc(Cl)c(OC(=O)CCCC)c(C(=O)O)c2)cc1C(=O)O` (stereo partly drawn), the EC50 is 74.1 µM and the IC50 was above 100 µM. In the same order, the values of `NC(=S)/N=C(/c1nc2ccc(Cl)cc2[nH]c1=O)C(O)c1ccccc1Cl` (stereo not drawn) are above 617 µM and 589 µM. In the same order, the values of `O=C(O)C1=CC(=C(c2ccc(O)c(C(=O)O)c2)c2ccc(O)c(C(=O)O)c2)C=C(Cc2ccc(O)c(C(=O)O)c2)C1=O` are above 1200 µM and 195 µM. Take `CCCCCCCCCC(=O)OC1CN2CC[C@H](O)C2C(O)[C@@H]1O` (stereo partly drawn): the outcome was inactive.

In the case of `CS(=O)(=O)OCCn1cnc2nc(NC(=O)c3ccccc3)[nH]c(=O)c21`, the EC50 is above 182 µM and the IC50 is above 182 µM.

For the molecule `COc1ccc(CN2C(=S)SC(c3ccc(Cl)cc3)N2c2ccc(OC)cc2)cc1` (stereo not drawn), the EC50 was above 200 µM and the IC50 was above 200 µM. For `O=[N+]([O-])c1ccccc1S(=O)(=O)Nc1ccccc1`, the outcome was inactive. With `CC1CC(c2ccc([N+](=O)[O-])cc2)=Nc2ccccc2S1` (stereo not drawn), the EC50 was above 9.12 µM and the IC50 was above 9.12 µM. Consider `CC(=O)Nc1cc2cc(NC(=O)C(Cl)(Cl)Cl)ccc2oc1=O`, for which the EC50 is above 81.3 µM and the IC50 is above 81.3 µM. `Cc1nc(N)nc(N)c1N1CCN(c2ccc(S(N)(=O)=O)cc2)CC1`: the EC50 is above 200 µM and the IC50 worked out at 0.398 µM.

Values taken from PubChem BioAssay AID179 (DTP/NCI, 2004).
